Assay results reported in patent US8658801B2, “Pesticides containing a bicyclic bisamide structure” (Syngenta Crop Protection, LLC, priority 2006, dated 2014).

Legend:
[1] = test system: Diabrotica balteata (Corn Root Worm); assay: Example B4: Diabrotica balteata, larvicide, feeding/residual contact, preventive; type: in vivo; conditions: 120 h, 5 days incubation, L2 larvae
Experimental: Diabrotica balteata (Corn Root Worm)
(§1) (Larvicide, Feeding/Residual Contact Activity, Preventive)
After drying, the MTP's are infested with larvae (L2)(6-10 per well). After an incubation period of 5 days, samples are checked for larval mortality, antifeedant and growth regulation. In this test, compounds listed in Table P above show good activity. In particular compounds P.1, P.2, P.5, P.6, P.10, P.11, P.12, P.13, P.15, P.16, P.17, P.18, P.19, P.24, P.25, P.27, P.28, P.29, P.30, P.31, P.33, P.34, P.35, P.37, P.38, P.39, P.42, P.43, P.44, P.45, P.46, P.47, P.48, P.49, P.50, P.52, P.53, P.65, P.67, P.68, P.69, P.70, P.71, P.72, P.75, P.78, and P.79 show an activity of over 80% at a concentration of 400 ppm.

[2] = test system: Spodoptera littoralis (Egyptian Cotton Leafworm); assay: Example B1: activity against Spodoptera littoralis, larvicide, feeding/residual contact, preventive (cotton leaf discs); type: in vivo; conditions: foliar, 72 h, 3 days after treatment, L1 larvae
Text: Activity Against Spodoptera littoralis (Egyptian Cotton Leafworm)
as §1
The samples are checked for mortality, repellent effect, feeding behaviour, and growth regulation 3 days after treatment. In this test, compounds listed in Table P above show good activity. In particular compounds P.1, P.2, P.3, P.4, P.5, P.6, P.7, P.9, P.10, P.11, P.12, P.13, P.15, P.16, P.17, P.18, P.19, P.20, P.21, P.22, P.23, P.24, P.25, P.26, P.27, P.28, P.29, P.30, P.31, P.32, P.33, P.34, P.35, P.36, P.37, P.38, P.39, P.40, P.41, P.42, P.43, P.44, P.45, P.46, P.47, P.48, P.49, P.50, P.51, P.52, P.53, P.54, P.55, P.56, P.57, P.58, P.59, P.60, P.61, P.63, P.64, P.67, P.68 and P.70 show an activity of over 80% at a concentration of 400 ppm.

[3] = test system: Heliothis virescens (Tobacco Budworm); assay: Example B2: activity against Heliothis virescens, ovo-larvicide, feeding/contact, curative; type: in vivo; conditions: 96 h, 4 days incubation, eggs 0-24 h old
Experimental: Activity Against Heliothis virescens (Tobacco Budworm)
(Ovo-Larvicide, Feeding/Contact Activity, Curative)
Eggs (0-24 h old) are placed in 24-well microtiter plate on artificial diet and treated with test solutions by pipetting. After an incubation period of 4 days, samples are checked for egg mortality, larval mortality, and growth regulation.

[4] = test system: Plutella xylostella (Diamond Back Moth); assay: Example B3: Plutella xylostella, larvicide, feeding/residual contact, preventive (artificial diet MTP); type: in vivo; conditions: 120 h, 5 days incubation, L2 larvae
Experimental: Plutella xylostella (Diamond Back Moth)
as §1
24-well microtiter plate (MTP) with artificial diet is treated with test solutions by pipetting. After drying, the MTP's are infested with larvae (L2)(10-15 per well). After an incubation period of 5 days, samples are checked for larval mortality, antifeedant and growth regulation. In this test, compounds listed in Table P above show good activity. In particular compounds P.1, P.2, P.3, P.4, P.5, P.6, P.7, P.9, P.10, P.11, P.12, P.13, P.15, P.16, P.17, P.18, P.19, P.20, P.21, P.22, P.23, P.25, P.26, P.27, P.28, P.29, P.30, P.31, P.32, P.33, P.34, P.35, P.36, P.37, P.38, P.39, P.40, P.41, P.42, P.43, P.44, P.46, P.47, P.48, P.49, P.50, P.51, P.52, P.53, P.54, P.55, P.56, P.57, P.58, P.59, P.60, P.61, P.63, P.64, P.67, P.68, P.69 P.70, P.72, P.74, P.77, P78 and P.79 show an activity of over 80% at a concentration of 400 ppm.

[5] = test system: Thrips tabaci (Onion Thrips); assay: Example B7: activity against Thrips tabaci, mixed population, feeding/residual contact, preventive; conditions: 144 h, read-out: activity
[6] = test system: Myzus persicae (Green Peach Aphid); assay: Example B5: activity against Myzus persicae, mixed population, feeding/residual contact, preventive (sunflower leaf discs); conditions: foliar, 144 h, read-out: activity

Measured: pest or weed control at 400 ppm

CCCc1nc2cc(C)c(NC(=O)c3cc(C(F)(F)F)nn3-c3ncccc3Cl)c(C(=O)NC(C)C)c2cc1CC [P.24]
> 80%: [1] | [2]

CC(C)NC(=O)c1c(NC(=O)c2cc(C(F)(F)F)nn2-c2ncccc2Cl)ccc2ncccc12 [P.75, 6-{[2-(3-chloro-pyridin-2-yl)-5-trifluoromethyl-2H-pyrazole-3-carbonyl]-amino}-quinoline-5-carboxylic acid isopropylamide]
> 80%: [1]

CNC(=O)c1c(NC(=O)c2cc(C(F)(F)F)nn2-c2ncccc2Cl)ccc2cccnc12 [P.74, 7-{[2-(3-chloro-pyridin-2-yl)-5-trifluoromethyl-2H-pyrazole-3-carbonyl]-amino}-quinoline-8-carboxylic acid methylamide]
> 80%: [3] | [4]

CC(C)NC(=O)c1c(NC(=O)c2cc(C(F)(F)F)nn2-c2ncccc2Cl)ccc2cn[nH]c12 [P.3]
> 80%: [3] | [4] | [5] | [2]

O=C(NCC1CC1)c1c(NC(=O)c2cc(C(F)(F)F)nn2-c2ncccc2Cl)ccc2cc[nH]c12 [P.2]
not listed: [5]
> 80%: all other assays above

CSCC(C)(C)NC(=O)c1c(NC(=O)c2cc(C(F)(F)F)nn2-c2ncccc2Cl)ccc2cn[nH]c12 [P.7]
> 80%: [3] | [4] | [2]

Cc1cc2c(ccc(C)[n+]2[O-])c(C(=O)NC(C)C)c1NC(=O)c1cc(C(F)(F)F)nn1-c1ncccc1Cl [P.21]
> 80%: [3] | [4] | [2]

CNC(=O)c1c(NC(=O)c2cc(C(F)(F)F)nn2-c2ncccc2Cl)c(C)cc2ncccc12 [P.77, 6-{[2-(3-chloro-pyridin-2-yl)-5-trifluoromethyl-2H-pyrazole-3-carbonyl]-amino}-7-methyl-quinoline-5-carboxylic acid methylamide]
> 80%: [3] | [4]

N#Cc1cc2cn[nH]c2c(C(=O)NC2(C3CC3)CC2)c1NC(=O)c1cc(C(F)(F)F)nn1-c1ncccc1Cl [P.26]
> 80%: [3] | [4] | [5] | [2]

CNC(=O)c1c(NC(=O)c2cc(C(F)(F)F)nn2-c2ncccc2Cl)ccc2cn[nH]c12 [P.6]
> 80%: [3] | [4] | [1] | [2]

O=C(NCC1CC1)c1c(NC(=O)c2cc(C(F)(F)F)nn2-c2ncccc2Cl)ccc2cn[nH]c12 [P.4]
> 80%: [3] | [4] | [2]

O=C(NC1(C2CC2)CC1)c1c(NC(=O)c2cc(C(F)(F)F)nn2-c2ncccc2Cl)ccc2cn[nH]c12 [P.5]
> 80%: [3] | [4] | [1] | [2]

COc1cc(C(=O)Nc2c(Cl)cc3c(Br)n[nH]c3c2C(=O)NC2(C3CC3)CC2)n(-c2ncccc2Cl)n1 [P.64, 3-bromo-5-chloro-6-{[2-(3-chloro-pyridin-2-yl)-5-methoxy-2H-pyrazole-3-carbonyl]-amino}-1H-indazole-7-carboxylic acid bicyclopropyl-1-ylamide]
> 80%: [3] | [4] | [5] | [2]

CC(C)NC(=O)c1c(NC(=O)c2cc(C(F)(F)F)nn2-c2ncccc2Cl)c(Br)cc2cn[nH]c12 [P.16]
> 80%: all assays above

CCNC(=O)c1c(NC(=O)c2cc(C(F)(F)F)nn2-c2ncccc2Cl)c(C)cc2nc(C)ccc12 [P.23]
> 80%: [3] | [4] | [2]

COc1cc(C(=O)Nc2c(Cl)cc3c(Br)n[nH]c3c2C(=O)NC(C)C)n(-c2ncccc2Cl)n1 [P.63, 3-bromo-5-chloro-6-{[2-(3-chloro-pyridin-2-yl)-5-methoxy-2H-pyrazole-3-carbonyl]-amino}-1H-indazole-7-carboxylic acid isopropylamide]
> 80%: [3] | [4] | [5] | [2]

O=C(NC1(C2CC2)CC1)c1c(NC(=O)c2cc(C(F)(F)F)nn2-c2ncccc2Cl)c(Cl)cc2c(Br)n[nH]c12 [P.68]
not listed: [6]
> 80%: all other assays above

Cc1n[nH]c2c(C(=O)NC(C)C)c(NC(=O)c3cc(C(F)(F)F)nn3-c3ncccc3Cl)c(Cl)cc12 [P.69, 5-chloro-6-{[2-(3-chloro-pyridin-2-yl)-5-trifluoromethyl-2H-pyrazole-3-carbonyl]-amino}-3-methyl-1H-indazole-7-carboxylic acid isopropylamide]
> 80%: [3] | [4] | [1]

CC(C)NC(=O)c1c(NC(=O)c2cc(C(F)(F)F)nn2-c2ncccc2Cl)ccc2cc[nH]c12 [P.1]
> 80%: [3] | [4] | [1] | [2]

C#Cc1cc2cn[nH]c2c(C(=O)NC2(C3CC3)CC2)c1NC(=O)c1cc(C(F)(F)F)nn1-c1ncccc1Cl [P.79, 6-{[2-(3-chloro-pyridin-2-yl)-5-trifluoromethyl-2H-pyrazole-3-carbonyl]-amino}-5-ethynyl-1H-indazole-7-carboxylic acid bicyclopropyl-1-ylamide]
> 80%: [4] | [1]

Cc1n[nH]c2c(C(=O)NC3(C4CC4)CC3)c(NC(=O)c3cc(C(F)(F)F)nn3-c3ncccc3Cl)c(Cl)cc12 [P.72, 5-chloro-6-{[2-(3-chloro-pyridin-2-yl)-5-trifluoromethyl-2H-pyrazole-3-carbonyl]-amino}-3-methyl-1H-indazole-7-carboxylic acid bicyclopropyl-1-ylamide]
> 80%: [3] | [4] | [1]

CC(C)NC(=O)c1c(NC(=O)c2cc(C(F)(F)F)nn2-c2ncccc2Cl)c(Cl)cc2c(Br)n[nH]c12 [P.67]
not listed: [6]
> 80%: all other assays above

CC(C)(CS(C)(=O)=O)NC(=O)c1c(NC(=O)c2cc(C(F)(F)F)nn2-c2ncccc2Cl)ccc2cn[nH]c12 [P.9]
> 80%: [3] | [6] | [4] | [2]
